Measurements reported in PubChem BioAssay (NCI).
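Results reflect a 48-hour exposure of cells in 96-well plates to compound at five concentrations. GI50 is the concentration that inhibits growth by half. TGI marks complete inhibition of growth.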

Legend:
Assay in all cases: NCI-60 cell line screen, 48 h
[1] = test system: SF-295 CNS
[2] = test system: NCI/ADR-RES ovarian
[3] = test system: MCF7 breast
[4] = test system: HOP-62 NSCLC
[5] = test system: HL-60(TB) leukemia
[6] = test system: NCI-H460 lung
[7] = test system: SN12C renal
[8] = test system: SNB-19 CNS
[9] = test system: OVCAR-3 ovarian
[10] = test system: U251 CNS
[11] = test system: SK-MEL-5 melanoma
[12] = test system: PC-3 prostate
[13] = test system: IGROV1 ovarian
[14] = test system: SK-OV-3 ovarian
[15] = test system: OVCAR-4 ovarian
[16] = test system: DU-145 prostate
[17] = test system: TK-10 renal
[18] = test system: BT-549 breast
[19] = test system: SF-539 CNS
[20] = test system: OVCAR-5 ovarian
[21] = test system: HOP-92 NSCLC
[22] = test system: SW-620 colon
[23] = test system: SF-268 CNS
[24] = test system: MDA-MB-435
[25] = test system: HCC-2998 colon
[26] = test system: RXF 393 renal
[27] = test system: SK-MEL-28 melanoma
[28] = test system: KM12 colon
[29] = test system: CAKI-1 renal
[30] = test system: UO-31 renal
[31] = test system: SNB-75 CNS
[32] = test system: CCRF-CEM leukemia
[33] = test system: ACHN renal
[34] = test system: 786-0 renal
[35] = test system: COLO 205 colon
[36] = test system: UACC-62 melanoma
[37] = test system: EKVX NSCLC
[38] = test system: K-562 leukemia
[39] = test system: RPMI-8226 leukemia
[40] = test system: SK-MEL-2 melanoma
[41] = test system: T-47D breast
[42] = test system: MOLT-4 leukemia
[43] = test system: HCT-116 colon
[44] = test system: NCI-H522 lung
[45] = test system: M14 melanoma
[46] = test system: MDA-MB-231 breast
[47] = test system: HT29 colon
[48] = test system: MALME-3M melanoma
[49] = test system: UACC-257 melanoma
[50] = test system: LOX IMVI melanoma
[51] = test system: HS 578T breast
[52] = test system: NCI-H23 lung
[53] = test system: NCI-H226 lung
[54] = test system: MDA-MB-468 breast
[55] = test system: A549 NSCLC
[56] = test system: OVCAR-8 ovarian
[57] = test system: HCT-15 colon
[58] = test system: SR leukemia
[59] = test system: A498 renal

Compound: CN1CCc2c(sc3ncnc(N/N=C/c4cccc(Cl)c4Cl)c23)C1
- GI50 [1]: 3.82 µM
- TGI [1]: 8.23 µM
- GI50 [2]: 4.76 µM
- TGI [2]: 15.3 µM
- GI50 [3]: 4.89 µM
- TGI [3]: 17.6 µM
- GI50 [4]: 4.45 µM
- TGI [4]: 10.7 µM
- GI50 [5]: 4.01 µM
- TGI [5]: 10 µM
- GI50 [6]: 7.54 µM
- TGI [6]: > 24 µM
- GI50 [7]: 5.58 µM
- TGI [7]: 16.8 µM
- GI50 [8]: 5.61 µM
- TGI [8]: 18.2 µM
- GI50 [9]: 4.77 µM
- TGI [9]: 13.8 µM
- GI50 [10]: 4.83 µM
- TGI [10]: 10.8 µM
- GI50 [11]: 12.9 µM
- TGI [11]: > 24 µM
- GI50 [12]: > 24 µM
- TGI [12]: > 24 µM
- GI50 [13]: 5.68 µM
- TGI [13]: 15.4 µM
- GI50 [14]: > 24 µM
- TGI [14]: > 24 µM
- GI50 [15]: 6.54 µM
- TGI [15]: > 24 µM
- GI50 [16]: 8.34 µM
- TGI [16]: > 24 µM
- GI50 [17]: 5.5 µM
- TGI [17]: 18.2 µM
- GI50 [18]: 4.13 µM
- TGI [18]: > 24 µM
- GI50 [19]: 3.83 µM
- TGI [19]: 7.3 µM
- GI50 [20]: 8.14 µM
- TGI [20]: > 24 µM
- GI50 [21]: 4.92 µM
- TGI [21]: > 24 µM
- GI50 [22]: 7.79 µM
- TGI [22]: > 24 µM
- GI50 [23]: 10.7 µM
- TGI [23]: > 24 µM
- GI50 [24]: 13.6 µM
- TGI [24]: > 24 µM
- GI50 [25]: 4.47 µM
- TGI [25]: 10.7 µM
- GI50 [26]: 3.19 µM
- TGI [26]: 12.3 µM
- GI50 [27]: 13.7 µM
- TGI [27]: > 24 µM
- GI50 [28]: > 24 µM
- TGI [28]: > 24 µM
- GI50 [29]: 4.49 µM
- TGI [29]: 11.4 µM
- GI50 [30]: 6.39 µM
- TGI [30]: > 24 µM
- GI50 [31]: 5.12 µM
- TGI [31]: 21.4 µM
- GI50 [32]: 4.41 µM
- TGI [32]: > 24 µM
- GI50 [33]: 3.68 µM
- TGI [33]: 7.89 µM
- GI50 [34]: 4.79 µM
- TGI [34]: 10 µM
- GI50 [35]: 4.34 µM
- TGI [35]: 9.78 µM
- GI50 [36]: > 24 µM
- TGI [36]: > 24 µM
- GI50 [37]: 5.09 µM
- TGI [37]: 17.6 µM
- GI50 [38]: 4.42 µM
- TGI [38]: 15.1 µM
- GI50 [39]: 6.69 µM
- TGI [39]: > 24 µM
- GI50 [40]: > 24 µM
- TGI [40]: > 24 µM
- GI50 [41]: 5.55 µM
- TGI [41]: 18.3 µM
- GI50 [42]: 7.65 µM
- TGI [42]: > 24 µM
- GI50 [43]: 4.49 µM
- TGI [43]: 11.2 µM
- GI50 [44]: 9.89 µM
- TGI [44]: > 24 µM
- GI50 [45]: 12.8 µM
- TGI [45]: > 24 µM
- GI50 [46]: 3.88 µM
- TGI [46]: 8.01 µM
- GI50 [47]: 4.16 µM
- TGI [47]: 9.55 µM
- GI50 [48]: 7.15 µM
- TGI [48]: > 24 µM
- GI50 [49]: > 24 µM
- TGI [49]: > 24 µM
- GI50 [50]: 3.52 µM
- TGI [50]: 6.83 µM
- GI50 [51]: 6.56 µM
- TGI [51]: 22.9 µM
- GI50 [52]: 5.24 µM
- TGI [52]: 15.4 µM
- GI50 [53]: 11.6 µM
- TGI [53]: > 24 µM
- GI50 [54]: 3.19 µM
- TGI [54]: 10.6 µM
- GI50 [55]: 7.79 µM
- TGI [55]: > 24 µM
- GI50 [56]: 5.81 µM
- TGI [56]: 17.8 µM
- GI50 [57]: 4.76 µM
- TGI [57]: 17.1 µM
- GI50 [58]: 3.54 µM
- TGI [58]: > 24 µM
- GI50 [59]: > 24 µM
- TGI [59]: > 24 µM
